ChEMBL document CHEMBL1155836, “Discovery of imidazole carboxamides as potent and selective CCK1R agonists” (Bioorg Med Chem Lett, 2008)
Active and inactive are the calls of the source. The rule behind the calls is not given here.

Tests used:
[1] = biological target: T1, Gastrin/cholecystokinin type B receptor (Homo sapiens) (UniProt P32239); experiment: Agonist activity against human CCK2 receptor; assay type: functional
T1 sequence (whole entry): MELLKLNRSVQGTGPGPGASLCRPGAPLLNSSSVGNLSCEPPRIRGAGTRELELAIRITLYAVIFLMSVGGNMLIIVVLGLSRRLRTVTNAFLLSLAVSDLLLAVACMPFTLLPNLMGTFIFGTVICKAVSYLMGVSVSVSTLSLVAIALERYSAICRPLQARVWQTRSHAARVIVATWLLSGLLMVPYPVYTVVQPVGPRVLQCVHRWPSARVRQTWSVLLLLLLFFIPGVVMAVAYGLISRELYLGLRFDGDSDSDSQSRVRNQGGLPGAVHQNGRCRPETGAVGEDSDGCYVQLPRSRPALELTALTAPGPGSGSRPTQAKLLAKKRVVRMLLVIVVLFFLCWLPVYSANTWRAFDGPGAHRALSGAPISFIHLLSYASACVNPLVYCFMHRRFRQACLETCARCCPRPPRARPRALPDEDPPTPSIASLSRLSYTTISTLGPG

[2] = biological target: T1, Gastrin/cholecystokinin type B receptor (Homo sapiens); experiment: Agonist activity against human CCK2 receptor assessed as receptor activation at 10000 nM; assay type: functional
[3] = biological target: T2, Cholecystokinin receptor type A (Homo sapiens, UniProt P32238); experiment: Agonist activity against human CCK1 receptor; assay type: functional
T2 sequence (P32238 whole entry): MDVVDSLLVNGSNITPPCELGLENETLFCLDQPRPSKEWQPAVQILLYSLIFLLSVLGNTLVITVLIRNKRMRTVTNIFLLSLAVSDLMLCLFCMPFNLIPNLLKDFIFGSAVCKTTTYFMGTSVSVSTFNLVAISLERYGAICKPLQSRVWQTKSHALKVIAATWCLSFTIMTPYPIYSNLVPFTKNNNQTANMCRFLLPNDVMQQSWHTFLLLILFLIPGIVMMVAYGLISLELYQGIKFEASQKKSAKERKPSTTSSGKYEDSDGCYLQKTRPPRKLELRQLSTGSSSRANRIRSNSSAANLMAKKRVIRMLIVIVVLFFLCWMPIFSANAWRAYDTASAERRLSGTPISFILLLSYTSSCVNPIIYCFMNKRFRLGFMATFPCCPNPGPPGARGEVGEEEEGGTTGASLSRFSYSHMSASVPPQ

[4] = biological target: T3, Cholecystokinin receptor type A (Homo sapiens) (UniProt P32238); experiment: Agonist activity against human CCK1 receptor assessed as receptor activation at 10000 nM; assay type: functional
T3 sequence (whole entry): T2 sequence (P32238 whole entry)

[5] = biological target: T2, Cholecystokinin receptor type A; experiment: Inhibition of human CCK1 receptor

Compound	Activity [1]	Activity [2] [%]	EC50 [3] [nM]	Activity [4] [%]	IC50 [5] [nM]
CCOc1cccc(-n2cc(C(=O)N3CCN(c4ccc5ccccc5c4)CC3)nc2-c2c(F)cccc2F)c1	inactive	< 12	4.4	109	1.9
CCOc1cccc(-n2cc(C(=O)N3CCN(c4ccc5ccccc5c4)CC3)nc2-c2ccc(C)cc2)c1	inactive	< 12	6.6	93	2.3
CCc1cccc(-n2cc(C(=O)N3CCN(c4ccc5ccccc5c4)CC3)nc2-c2ccc(C)cc2)c1	inactive	< 21	65	101	43
COc1cccc(-n2cc(C(=O)N3CCN(c4cc(C(=O)O)c5ccccc5c4)CC3)nc2-c2ccc(C)cc2)c1	inactive	< 20	0.078	85	0.14
CCOc1cccc(-n2cc(C(=O)N3CCN(c4ccc5ccccc5c4)CC3)nc2-c2ccc(F)cc2F)c1	inactive	< 12	1.1	103	1
COc1cccc(-n2cc(C(=O)N3CCN(c4ccc(Cl)c(Cl)c4)CC3)nc2-c2ccc(C)cc2)c1	inactive	< 20	25	99	8
COc1ccc(-n2cc(C(=O)N3CCN(c4ccc5ccccc5c4)CC3)nc2-c2ccc(C)cc2)cc1	inactive	< 21	20	110	6.9
CCOc1cccc(-n2cc(C(=O)N3CCN(c4ccc5ccccc5c4)CC3)nc2-c2ccccc2F)c1	inactive	< 12	6.3	110	1.9
COc1cccc(-n2cc(C(=O)N3CCN(c4ccc5ncccc5c4)CC3)nc2-c2ccc(C)cc2)c1	inactive	< 20	9.3	108	8.6
COc1cccc(-n2cc(C(=O)N3CCN(c4cc5ccccc5cc4C(=O)O)CC3)nc2-c2ccc(C)cc2)c1	inactive	< 20	0.4	92	1.3
COc1cccc(-n2cc(C(=O)N3CCN(c4ccc5ccccc5c4)CC3)nc2-c2ccc(C)cc2)c1	inactive	< 21	9.6	99	2.5
Cc1ccc(-c2nc(C(=O)N3CCN(c4ccc5ccccc5c4)CC3)cn2-c2cccc(O)c2)cc1	inactive	< 21	82	102	22
COc1cccc(-n2cc(C(=O)N3CCN(c4cnc5ccccc5c4)CC3)nc2-c2ccc(C)cc2)c1	inactive	< 20	1.1	92	1.3
Cc1ccc(-c2nc(C(=O)N3CCN(c4ccc5ccccc5c4)CC3)cn2-c2cccc(OCC(F)(F)F)c2)cc1	inactive	< 21	1350	95	200
CCOc1cccc(-n2cc(C(=O)N3CCN(c4ccc5ccccc5c4)CC3)nc2-c2ccc(CC)cc2)c1	inactive	< 12	175	83	43
COc1cccc(-n2cc(C(=O)N3CCN(c4ccc5ccccc5n4)CC3)nc2-c2ccc(C)cc2)c1	inactive	< 20	43	89	16

Compound	Activity [1]	Activity [2] [%]	EC50 [3] [nM]	Activity [4] [%]	IC50 [5] [nM]
COc1cccc(-c2cc(C(=O)N3CCN(c4cccc(Cl)c4)CC3)nn2-c2ccc(C)cc2)c1		4.4	308	82	41
COc1cccc(-n2cc(C(=O)N3CCN(c4cccc5ccccc45)CC3)nc2-c2ccc(C)cc2)c1	inactive	< 20	5370	30	630
CCOc1cccc(-n2cc(C(=O)N3CCN(c4ccc5ccccc5c4)CC3)nc2-c2cccc(F)c2)c1	inactive	< 12	105	106	35
COc1cccc(-n2cc(C(=O)N3CCN(c4nc5ccccc5[nH]4)CC3)nc2-c2ccc(C)cc2)c1	inactive	< 20	9.1	89	17
Cc1ccc(-c2nc(C(=O)N3CCN(c4ccc5ccccc5c4)CC3)cn2-c2ccc3c(c2)OCCO3)cc1	inactive	< 21	0.99	89	0.42
Cc1ccc(-c2nc(C(=O)N3CCN(c4ccc5ccccc5c4)CC3)cn2-c2cccc(OC(F)(F)F)c2)cc1	inactive	< 21	3150	66	130
CCOc1cccc(-n2cc(C(=O)N3CCN(c4ccc5ccccc5c4)CC3)nc2-c2ccc(C)cc2F)c1	inactive	< 12	1.9	116	0.56
Cc1ccc(-c2nc(C(=O)N3CCN(c4ccc5ccccc5c4)CC3)cn2-c2cccc(OC(C)C)c2)cc1	inactive	< 21	53	94	30
COc1cccc(-n2cc(C(=O)N3CCN(c4cccc(Cl)c4)CC3)nc2-c2ccc(C)cc2)c1	inactive	< 20	74	89	14
COc1cccc(-n2cc(C(=O)N3CCN(c4cc5ccccc5cn4)CC3)nc2-c2ccc(C)cc2)c1	inactive	< 20	8.4	89	1.9
CCOc1cccc(-n2cc(C(=O)N3CCN(c4ccc5ccccc5c4)CC3)nc2-c2ccc(Cl)cc2)c1	inactive	< 12	5.5	119	5.6
CCCOc1cccc(-n2cc(C(=O)N3CCN(c4ccc5ccccc5c4)CC3)nc2-c2ccc(C)cc2)c1	inactive	< 21	962	89	160
CCOc1cccc(-n2cc(C(=O)N3CCN(c4ccc5ccccc5c4)CC3)nc2-c2ccccc2)c1	inactive	< 12	7.4	100	3.4
COc1cccc(-n2cc(C(=O)N3CCN(c4ccc5cnccc5c4)CC3)nc2-c2ccc(C)cc2)c1	inactive	< 20	106	86	190
CCOc1cccc(-n2cc(C(=O)N3CCN(c4ccc5ccccc5c4)CC3)nc2-c2ccc(F)cc2)c1	inactive	< 12	2.9	96	1.9
Cc1ccc(-c2nc(C(=O)N3CCN(c4ccc5ccccc5c4)CC3)cn2-c2cccc3c2OCCO3)cc1	inactive	< 21	471	70	140
